Measurements published in patent US10660336B2 (priority 2014, dated 2020).
Read-outs that look alike come from different tables or passages of the source.

Legend:
[1] = test system: pepper mottle virus (PepMoV); set-up: species or system Nicotiana benthamiana; settings: in vivo
tobacco mosaic virus = assay: Half leaf method, anti-viral activity against tobacco mosaic virus (local lesion count); type: in vivo; settings: concentration of 5 ppm or above; Nicotiana tabacum cv. Xanthi nc half leaf; 3 days after inoculation
Protocol: A half leaf method was performed to determine an anti-viral activity against tobacco mosaic virus, which was provided from the plant virus genebank (PVGB), Seoul women's university, of the compounds which was determined to have the anti-viral activity against the pepper mottle virus in Example 3. The half leaf method utilizes features of producing black spots due to local lesions around the infected part by tobacco mosaic virus in Nicotiana tabacum cv. Xanthi nc which is a local lesion host. Top 3 leaves and 4 leaves of 7-8 normal leaves of the local lesion host were taken and carborundum was evenly sprayed throughout the leaves. A compound 1 (Trichodermin) sample at test concentrations dissolved in DMSO and the tobacco mosaic virus solution were mixed. Right half leaf of the leaf of the Nicotiana tabacum cv. Xanthi nc was inoculated with this mixture and the other left half leaf was inoculated with tobacco mosaic virus solution (control) using cotton swabs. After petiole of the leaf of the Nicotiana tabacum cv. […] After 3 days of inoculation, the number of local lesions was counted and 100-400 of lesions of […] control half leaf was only applied. Activity rate using the number of lesions was calculated by the following equation. […]

[2] = test system: pepper mottle virus (PepMoV); set-up: species or system Capsicum anuum L.; settings: in vivo

CC(=O)O[C@@H]1C[C@H]2O[C@@H]3C=C(C)CC[C@]3(C)[C@]1(C)[C@]21CO1 [Trichodermin]
spreading rate of the pepper mottle virus (green fluorescent protein in upper leaves under UV, viral RNA and coat protein) [1]: inhibits spreading rate of the pepper mottle virus | anti-viral activity against the tobacco mosaic virus (control rate from number of local lesions) (tobacco mosaic virus): ≥ 97% | spreading rate of the pepper mottle virus (green fluorescent protein in upper leaves under UV, viral RNA and coat protein) [2]: inhibits spreading rate of the pepper mottle virus
